Experimental findings from patent US20230131899A1, “INHIBITORS OF MICROBIALLY INDUCED AMYLOID” (Axial Therapeutics, Inc., priority 2020, published 2023) are described below.

Read-outs that look alike come from different tables or passages of the source.

The target of the test is T1, human α-synuclein (Homo sapiens, UniProt P37840).
T1 construct: the full-length gene for untagged human α-synuclein was inserted; made in house; host or cells: E. coli BL21(DE3), plasmid derived from pT7 or pET11a
Briefly: Cell-free Thioflavin T assay of α-synuclein aggregation (αSyn ThT Assay). Conditions: αSyn 50 μM. The class given is biochemical. In short, it runs like this:
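Inhibition is reported as 100% minus background-corrected ThT signal relative to vehicle wells, taken at 36, 47, 48 or 72 h or the last read. Reactions held 50 μM recombinant α-synuclein, 20-100 μM compound, 20-40 μM ThT and 1% DMSO. Incubation was at 37° C., shaken, with a glass bead.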

Where [1] appears, read: class symbol, compounds 100 μM, read-out: αSyn ThT Assay % inhibition, activity range.
Setting [2] is: mean percent inhibition relative to DMSO control, compounds 100 μM, read-out: αSyn ThT Assay % inhibition.
Where [3] appears, read: mean % inhibition of αSyn aggregation relative to DMSO control, compounds at 100 μM, read-out: αSyn ThT Assay % Inhibition.
Setting [4] is: compounds at 100 μM, class symbol, read-out: αSyn ThT Assay % Inhibition (activity range).

As a reminder, the inhibition is the change of the read-out against control, counted positive when it falls.

Regarding `CCCCN1CC(C(=O)O)n2c1c(-c1cccc(C(F)(F)F)c1)c(Cc1cccc3ccccc13)c(Cl)c2=O` (centres unmarked) [Compound 163, 1-butyl-6-chloro-7-(naphthalen-1-ylmethyl)-5-oxo-8-(3-(trifluoromethyl)phenyl)-1,2,3,5-tetrahydroimidazo[1,2-a]pyridine-3-carboxylic acid], the inhibition at 100 µM is 31 to 60% under setting [1] and 47% under setting [2].

Turning to `CN1CC(C(=O)O)n2c(c(-c3cccc(C(F)(F)F)c3)c(Cc3cccc4ccccc34)c(C(=O)N3CCOCC3)c2=O)S1(=O)=O` (centres unmarked) [Compound 160, 2-methyl-7-(morpholine-4-carbonyl)-8-(naphthalen-1-ylmethyl)-6-oxo-9-(3-(trifluoromethyl)phenyl)-3,4-dihydro-2H,6H-pyrido[1,2-e][1,2,5] thiadiazine-4-carboxylic acid 1,1-dioxide], the inhibition at 100 µM by setting is: under setting [1], 11 to 30%; under setting [2], 17%.

Turning to `CCCN1CC(C(=O)O)n2c(c(-c3cccc(C(F)(F)F)c3)c(Cc3cccc4ccccc34)c(NC(=O)C(C)C)c2=O)S1(=O)=O` (centres unmarked) [Compound 152, 7-isobutyramido-8-(naphthalen-1-ylmethyl)-6-oxo-2-propyl-9-(3-(trifluoromethyl)phenyl)-3,4-dihydro-2H,6H-pyrido[1,2-e][1,2,5]thiadiazine-4-carboxylic acid 1,1-dioxide], the inhibition at 100 µM was 31 to 60% under setting [1] and 54% under setting [2].

As to `CN(C)C(=O)c1c(Cc2cccc3ccccc23)c(-c2cccc(C(F)(F)F)c2)c2n(c1=O)C(C(=O)O)CN(C)S2(=O)=O` (centres unmarked) [Compound 173, 7-(dimethylcarbamoyl)-2-methyl-8-(naphthalen-1-ylmethyl)-6-oxo-9-(3-(trifluoromethyl)phenyl)-3,4-dihydro-2H,6H-pyrido[1,2-e] [1,2,5] thiadiazine-4-carboxylic acid 1,1-dioxide], the inhibition at 100 µM reads like this: under setting [1], more than 60%; under setting [2], 86%.

On to `O=C(O)C1CN(CC2CCCC2)c2c(-c3cccc(C(F)(F)F)c3)c(Cc3cccc4ccccc34)c(Cl)c(=O)n21` (centres unmarked) [Compound 167, 6-chloro-1-(cyclopentylmethyl)-7-(naphthalen-1-ylmethyl)-5-oxo-8-(3-(trifluoromethyl)phenyl)-1,2,3,5-tetrahydroimidazo[1,2-a]pyridine-3-carboxylic acid], for which the inhibition at 100 µM runs as follows: under setting [1], 31 to 60%; under setting [2], 45%.

In the case of `COc1ccc(CN2CC(C(=O)O)n3c2c(-c2cccc(C(F)(F)F)c2)c(Cc2cccc4ccccc24)c(Cl)c3=O)cc1` (centres unmarked) [Compound 192, 6-chloro-1-(4-methoxybenzyl)-7-(naphthalen-1-ylmethyl)-5-oxo-8-(3-(trifluoromethyl)phenyl)-1,2,3,5-tetrahydroimidazo[1,2-a]pyridine-3-carboxylic acid], the inhibition at 100 µM was 31 to 60% under setting [1] and 59% under setting [2].

For the compound `O=C(O)C1CN(Cc2ccccc2)c2c(-c3cccc(C(F)(F)F)c3)c(Cc3cccc4ccccc34)c(Br)c(=O)n21` (centres unmarked) [Compound 003, 1-benzyl-6-bromo-7-(naphthalen-1-ylmethyl)-5-oxo-8-(3-(trifluoromethyl)phenyl)-1,2,3,5-tetrahydroimidazo[1,2-a]pyridine-3-carboxylic acid], the inhibition at 100 µM was more than 60% under setting [1] and 76% under setting [2].

`O=C(O)C1CN(CCc2ccccc2)c2c(-c3cccc(C(F)(F)F)c3)c(Cc3cccc4ccccc34)c(Cl)c(=O)n21` (centres unmarked) [Compound 178, 6-chloro-7-(naphthalen-1-ylmethyl)-5-oxo-1-phenethyl-8-(3-(trifluoromethyl)phenyl)-1,2,3,5-tetrahydroimidazo[1,2-a]pyridine-3-carboxylic acid]: the inhibition at 100 µM was 31 to 60% under setting [1] and 43% under setting [2].

Take `CCCN1CC(C(=O)O)n2c(c(-c3cccc(C(F)(F)F)c3)c(Cc3cccc4ccccc34)c(OCC)c2=O)S1(=O)=O` (centres unmarked) [Compound 143, 7-ethoxy-8-(naphthalen-1-ylmethyl)-6-oxo-2-propyl-9-(3-(trifluoromethyl)phenyl)-3,4-dihydro-2H,6H-pyrido[1,2-e][1,2,5]thiadiazine-4-carboxylic acid 1,1-dioxide]: the inhibition at 100 µM runs as follows: under setting [1], more than 60%; under setting [2], 96%.

With `O=C(O)C1CN(CC2CCCCC2)c2c(-c3cccc(C(F)(F)F)c3)c(Cc3cccc4ccccc34)c(Cl)c(=O)n21` (centres unmarked) [Compound 180, 6-chloro-1-(cyclohexylmethyl)-7-(naphthalen-1-ylmethyl)-5-oxo-8-(3-(trifluoromethyl)phenyl)-1,2,3,5-tetrahydroimidazo[1,2-a]pyridine-3-carboxylic acid], the inhibition at 100 µM under setting [1] was more than 60% and the inhibition at 100 µM under setting [2] came out at 63%.

Consider `Cn1c(=O)c2c(nc(CCCCN3CC(C(=O)O)n4c(c(-c5cccc(C(F)(F)F)c5)c(Cc5cccc6ccccc56)cc4=O)S3(=O)=O)n2C)n(C)c1=O` (centres unmarked) [Compound 044, 8-(naphthalen-1-ylmethyl)-6-oxo-9-(3-(trifluoromethyl)phenyl)-2-(4-(1,3,7-trimethyl-2,6-dioxo-2,3,6,7-tetrahydro-1H-purin-8-yl)butyl)-3,4-dihydro-2H,6H-pyrido[1,2-e][1,2,5]thiadiazine-4-carboxylic acid 1,1-dioxide], for which the inhibition at 100 µM runs as follows: under setting [3], 10%; under setting [4], -10 to 10%.

As to `O=C(O)C1CN(Cc2cccc3ccccc23)c2c(-c3cccc(C(F)(F)F)c3)c(Cc3cccc4ccccc34)c(Cl)c(=O)n21` (centres unmarked) [Compound 200, 6-chloro-1,7-bis(naphthalen-1-ylmethyl)-5-oxo-8-(3-(trifluoromethyl)phenyl)-1,2,3,5-tetrahydroimidazo[1,2-a]pyridine-3-carboxylic acid], the inhibition at 100 µM under setting [1] is more than 60% and the inhibition at 100 µM under setting [2] is 84%.

Turning to `O=C(O)[C@H]1CN(Cc2ccccc2)c2c(-c3cccc(C(F)(F)F)c3)c(Cc3cccc4ccccc34)c(Cl)c(=O)n21` (single isomer, unassigned) [Compound 004b], the inhibition at 100 µM was 31 to 60% under setting [1] and 44% under setting [2].

In the case of `CN(C)C(=O)C1CN(C)S(=O)(=O)c2c(-c3cccc(C(F)(F)F)c3)c(Cc3cccc4ccccc34)cc(=O)n21` (centres unmarked) [Compound 032, N,N-2-trimethyl-8-(naphthalen-1-ylmethyl)-6-oxo-9-(3-(trifluoromethyl)phenyl)-3,4-dihydro-2H,6H-pyrido[1,2-e][1,2,5]thiadiazine-4-carboxamide 1,1-dioxide], the inhibition at 100 µM reads like this: under setting [3], 8%; under setting [4], -10 to 10%.

In the case of `O=C(O)C1CN(C[C@@H](O)CO)S(=O)(=O)c2c(-c3cccc(C(F)(F)F)c3)c(Cc3cccc4ccccc34)cc(=O)n21` (mixture of isomers) [Compound 065b, 2-((R)-2,3-dihydroxypropyl)-8-(naphthalen-1-ylmethyl)-6-oxo-9-(3-(trifluoromethyl)phenyl)-3,4-dihydro-2H,6H-pyrido[1,2-e][1,2,5]thiadiazine-4-carboxylic acid 1,1-dioxide], the inhibition at 100 µM is, setting by setting: under setting [3], 9%; under setting [4], -10 to 10%.

Consider `Cn1c(=O)c2c(ncn2CCCCCCCN2CC(C(=O)O)n3c(c(-c4cccc(C(F)(F)F)c4)c(Cc4cccc5ccccc45)cc3=O)S2(=O)=O)n(C)c1=O` (centres unmarked) [Compound 036], for which the inhibition at 100 µM is 16% under setting [3] and 11 to 30% under setting [4].
